Laboratory results: PubChem BioAssay (NCI)
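48-hour exposure; five concentrations; linearly interpolated endpoints. GI50 marks 50% less growth. At the TGI there is no net growth.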

Tests used:
Test in all cases: NCI tumour cell line growth inhibition, 48 h
A498 renal = system: A498 renal
A549 NSCLC = system: A549 NSCLC
ACHN renal = system: ACHN renal
BT-549 breast = system: BT-549 breast
CAKI-1 renal = system: CAKI-1 renal
COLO 205 colon = system: COLO 205 colon
DU-145 prostate = system: DU-145 prostate
EKVX NSCLC = system: EKVX NSCLC
HCC-2998 colon = system: HCC-2998 colon
HCT-116 colon = system: HCT-116 colon
HCT-15 colon = system: HCT-15 colon
HL-60(TB) leukemia = system: HL-60(TB) leukemia
HOP-62 NSCLC = system: HOP-62 NSCLC
HOP-92 NSCLC = system: HOP-92 NSCLC
HS 578T breast = system: HS 578T breast
IGROV1 ovarian = system: IGROV1 ovarian
K-562 leukemia = system: K-562 leukemia
KM12 colon = system: KM12 colon
LOX IMVI melanoma = system: LOX IMVI melanoma
M14 melanoma = system: M14 melanoma
MALME-3M melanoma = system: MALME-3M melanoma
MCF7 breast = system: MCF7 breast
MDA-MB-231 breast = system: MDA-MB-231 breast
MDA-MB-435 = system: MDA-MB-435
NCI-H226 lung = system: NCI-H226 lung
NCI-H23 lung = system: NCI-H23 lung
NCI-H460 lung = system: NCI-H460 lung
NCI-H522 lung = system: NCI-H522 lung
NCI/ADR-RES ovarian = system: NCI/ADR-RES ovarian
OVCAR-3 ovarian = system: OVCAR-3 ovarian
OVCAR-4 ovarian = system: OVCAR-4 ovarian
OVCAR-5 ovarian = system: OVCAR-5 ovarian
OVCAR-8 ovarian = system: OVCAR-8 ovarian
PC-3 prostate = system: PC-3 prostate
RPMI-8226 leukemia = system: RPMI-8226 leukemia
RXF 393 renal = system: RXF 393 renal
SF-268 CNS = system: SF-268 CNS
SF-295 CNS = system: SF-295 CNS
SF-539 CNS = system: SF-539 CNS
SK-MEL-2 melanoma = system: SK-MEL-2 melanoma
SK-MEL-28 melanoma = system: SK-MEL-28 melanoma
SK-MEL-5 melanoma = system: SK-MEL-5 melanoma
SK-OV-3 ovarian = system: SK-OV-3 ovarian
SN12C renal = system: SN12C renal
SNB-75 CNS = system: SNB-75 CNS
SR leukemia = system: SR leukemia
SW-620 colon = system: SW-620 colon
T-47D breast = system: T-47D breast
TK-10 renal = system: TK-10 renal
U251 CNS = system: U251 CNS
UACC-257 melanoma = system: UACC-257 melanoma
UACC-62 melanoma = system: UACC-62 melanoma
UO-31 renal = system: UO-31 renal

O=c1ccc2nc(C(F)(F)F)nn(-c3ccccc3)c-2c1
GI50 (A498 renal): 14.1 µM | TGI (A498 renal): 27.2 µM | GI50 (A549 NSCLC): 19.3 µM | TGI (A549 NSCLC): 39 µM | GI50 (ACHN renal): 1.18 µM | TGI (ACHN renal): 2.45 µM | GI50 (BT-549 breast): 12.3 µM | TGI (BT-549 breast): 24.8 µM | GI50 (CAKI-1 renal): 1.47 µM | TGI (CAKI-1 renal): 2.8 µM | GI50 (COLO 205 colon): 2.32 µM | TGI (COLO 205 colon): 5.77 µM | GI50 (DU-145 prostate): 1.77 µM | TGI (DU-145 prostate): 3.17 µM | GI50 (EKVX NSCLC): 13.6 µM | TGI (EKVX NSCLC): 27.1 µM | GI50 (HCC-2998 colon): 15.4 µM | TGI (HCC-2998 colon): 29.7 µM | GI50 (HCT-116 colon): 1.61 µM | TGI (HCT-116 colon): 3.15 µM | GI50 (HCT-15 colon): 1.45 µM | TGI (HCT-15 colon): 3.42 µM | GI50 (HL-60(TB) leukemia): 1.21 µM | TGI (HL-60(TB) leukemia): 4.31 µM | GI50 (HOP-62 NSCLC): 7.95 µM | TGI (HOP-62 NSCLC): 27.7 µM | GI50 (HOP-92 NSCLC): 1.41 µM | TGI (HOP-92 NSCLC): 2.97 µM | GI50 (HS 578T breast): 12.2 µM | TGI (HS 578T breast): 80.4 µM | GI50 (IGROV1 ovarian): 11.9 µM | TGI (IGROV1 ovarian): 25.5 µM | GI50 (K-562 leukemia): 2.11 µM | TGI (K-562 leukemia): 9.14 µM | GI50 (KM12 colon): 19.6 µM | TGI (KM12 colon): 37.3 µM | GI50 (LOX IMVI melanoma): 1.59 µM | TGI (LOX IMVI melanoma): 3.22 µM | GI50 (M14 melanoma): 5.8 µM | TGI (M14 melanoma): 19 µM | GI50 (MALME-3M melanoma): 1.82 µM | TGI (MALME-3M melanoma): 3.3 µM | GI50 (MCF7 breast): 0.495 µM | TGI (MCF7 breast): 4.07 µM | GI50 (MDA-MB-231 breast): 1.92 µM | TGI (MDA-MB-231 breast): 5.55 µM | GI50 (MDA-MB-435): 4.56 µM | TGI (MDA-MB-435): 16.4 µM | GI50 (NCI-H226 lung): 13.1 µM | TGI (NCI-H226 lung): 30.5 µM | GI50 (NCI-H23 lung): 5.96 µM | TGI (NCI-H23 lung): 22.2 µM | GI50 (NCI-H460 lung): 17.6 µM | TGI (NCI-H460 lung): 36.2 µM | GI50 (NCI-H522 lung): 1.51 µM | TGI (NCI-H522 lung): 3.01 µM | GI50 (NCI/ADR-RES ovarian): 17.1 µM | TGI (NCI/ADR-RES ovarian): 64 µM | GI50 (OVCAR-3 ovarian): 1.58 µM | TGI (OVCAR-3 ovarian): 2.95 µM | GI50 (OVCAR-4 ovarian): 1.47 µM | TGI (OVCAR-4 ovarian): 2.83 µM | GI50 (OVCAR-5 ovarian): 15.4 µM | TGI (OVCAR-5 ovarian): 29.1 µM | GI50 (OVCAR-8 ovarian): 4.21 µM | TGI (OVCAR-8 ovarian): 33.9 µM | GI50 (PC-3 prostate): 10.7 µM | TGI (PC-3 prostate): 23.7 µM | GI50 (RPMI-8226 leukemia): 4.82 µM | TGI (RPMI-8226 leukemia): 77.5 µM | GI50 (RXF 393 renal): 1.45 µM | TGI (RXF 393 renal): 2.8 µM | GI50 (SF-268 CNS): 15 µM | TGI (SF-268 CNS): 28.9 µM | GI50 (SF-295 CNS): 22.7 µM | TGI (SF-295 CNS): 67.1 µM | GI50 (SF-539 CNS): 15.8 µM | TGI (SF-539 CNS): 29.3 µM | GI50 (SK-MEL-2 melanoma): 3.63 µM | TGI (SK-MEL-2 melanoma): 15.6 µM | GI50 (SK-MEL-28 melanoma): 1.7 µM | TGI (SK-MEL-28 melanoma): 3.26 µM | GI50 (SK-MEL-5 melanoma): 7.8 µM | TGI (SK-MEL-5 melanoma): 21.1 µM | GI50 (SK-OV-3 ovarian): 15 µM | TGI (SK-OV-3 ovarian): > 100 µM | GI50 (SN12C renal): 7.31 µM | TGI (SN12C renal): 57.4 µM | GI50 (SNB-75 CNS): 13.3 µM | TGI (SNB-75 CNS): 26.4 µM | GI50 (SR leukemia): 0.999 µM | TGI (SR leukemia): > 100 µM | GI50 (SW-620 colon): 1.75 µM | TGI (SW-620 colon): 3.71 µM | GI50 (T-47D breast): 1.69 µM | TGI (T-47D breast): 6.62 µM | GI50 (TK-10 renal): 1.62 µM | TGI (TK-10 renal): 3.09 µM | GI50 (U251 CNS): 13.4 µM | TGI (U251 CNS): 28.6 µM | GI50 (UACC-257 melanoma): 1.91 µM | TGI (UACC-257 melanoma): 4.05 µM | GI50 (UACC-62 melanoma): 5.13 µM | TGI (UACC-62 melanoma): 17.9 µM | GI50 (UO-31 renal): 1.48 µM | TGI (UO-31 renal): 2.9 µM
